Experimental data as given in patent US9260481B2, “Peptide derivatives as antibiotics” (priority 2011, dated 2016).
In brackets after ≈: the same amount, converted by molar mass. Read-outs that look alike come from different tables or passages of the source. Numbered stars: 1 amine (or outer) side, 2 acyl side, 3 side chain; on linkers, the order of the positions; unused ones are H or OH. Square brackets hold non-standard residues; d marks the D form. Peptide text beside a SMILES is read from it. * marks the point of attachment. ξ: configuration not given here. X1 = NCC(O)CCC(N[*:1])C(=O)[*:2]; ΔZArg = N=C(N)NCC/C=C(\N)C(=O)O; ξDab(3-OH) = NCC(O)C(N)C(=O)O; Orn = NCCC[CH](N)C(=O)O; NH(CH2)4NH2 = NCCCCN*

What was measured:
P. aeruginosa ATCC 27853 [1] = assay: Acute lethal infection in mice; assay type: in vivo, BALB/c mice; settings: mice, P. aeruginosa 8.6 log10 CFU/mouse IP, n=6
Procedure: Female BALB/c mice ordered from Harlan Laboratories (Indianapolis, Ind.) weighing 19-21 g were used in experiments of acute lethal infection. Mice were fully immunocompetent. Infection was induced by inoculating intraperitoneally in mice a bacterial suspension of P. aeruginosa ATCC 27853. The bacterial challenges (8.6 log10 CFU/mouse) were given suspended in 0.1 mL sterile saline. Treatments were administered once 1 hour after challenge via IV injection (Tobramycin was administered via IP injection immediately after challenge) (Table 13). Mortality was tracked out to 2 days post challenge. Animals that remained surviving at the end of the study were humanely euthanized.

P. aeruginosa ATCC 27853 [2] = assay: Bacterial killing curves (time-to-kill); assay type: cell-based, Pseudomonas aeruginosa; settings: growing P. aeruginosa ATCC 27853, at four-fold the MIC
Procedure: Bacterial killing curves were carried out by inoculating S. aureus ATCC 13709 and P. aeruginosa ATCC 27853 with Odilomycin A concentration equal to four-fold the MIC. […] S. aureus and P. aeruginosa inoculi were prepared from colonies grown overnight in MHB. Antibiotics concentrations in the flask were adjusted in MHB according to the desired concentration. Culture tubes containing 10 mL were inoculated with S. aureus or P. aeruginosa at an approximate inoculum of 10^5 CFU/mL. Samples were drawn and bacteria were counted at 0, 1, 2, 3, 4, 6 and 24 h of incubation at 37° C. Thus, after vortexing the culture tubes, two 50 μL samples were removed and serially diluted with MHB. After each dilution step, 20 μL was plated onto LB agar plates, which were incubated for 24 h at 37° C. Afterwards the colonies were counted and back-extrapolated to the original volume to determine the initial concentration (CFU/mL).

S. aureus ATCC 13709 = assay: MBC in presence of human serum; assay type: cell-based, Staphylococcus aureus; settings: for MBC S. aureus ATCC 13709: unit not given (Table 10: μg/mL)
Procedure: (§1) Minimal bactericidal concentrations (MBCs) were established by extending the MIC procedure to the evaluation of bactericidal activity. After 24 hours, 10 μL were drawn from the wells, serially diluted and then spotted onto suitable agar plates. The plates were incubated at 37° C. overnight. […] All the experiments were done in triplicate.
MBCs were also determined in presence of 50% and 95% (v/v) of human serum to assess protein binding.

Cytotoxicity test (MTS) = assay type: cell-based; settings: human; for CC50 at 72 h: MTS; for viability at 72 h: dose of up to 100 μg/mL, read-out: cell viability
Procedure: The cytotoxicity of the Odilomycins A-C was investigated against Human colon adenocarcinoma (HT29) cells and Human normal lung fibroblasts (MRC-5) cells. 200 μL of the cell suspension of HT29 (human colorectal adenocarcinoma) prepared in RPMI 1640+1% L-Glutamine supplemented with 10% (v/v) fetal calf serum and 200 μL of the cell suspension of MRC5 (human lung fibroblast) prepared in Dulbecco's modified Eagle's medium supplemented with 25 mM glucose and 10% (v/v) fetal calf serum were inoculated into 96-well plates.
The inoculating cell number was 800 cells per well for HT29 and 2100 cells per well for MRC-5. The microplates were incubated at 37° C. for 24 h with 5% of CO2.
Twenty four hours later, Odilomycin A, B or C dissolved in water were added for 72 h at a final concentration from 0.78 μg/mL to 100 μg/mL in a fixed volume of water (1% final concentration). […] Experiments were done in triplicate.

K. pneumoniae ATCC 43816 = assay type: cell-based, Klebsiella pneumoniae; settings: ATCC 43816
Text: (§2) Vancomycin, rifampicin, kanamycin, gentamicin, ampicillin, ciprofloxacin and tetracycline (Sigma-Aldrich) were provided as standard powders by the manufacturers.

[3] = tested on: S. aureus Smith ATCC 13709; assay: Acute lethal infection in mice; assay type: in vivo, ICR mice; settings: for Survival of all treated mice: S. aureus infection; for Animal deaths Day 0 / Animal deaths Day 1 / Animal deaths Day 3 / Animal deaths Day 4 / Animal deaths Day 5 / Animal deaths Day 2: mice, S. aureus 5 log10 CFU/mouse IP, n=6
Procedure: Female ICR mice ordered from Harlan Laboratories (Indianapolis, Ind.) weighing 19-21 g were used in experiments of acute lethal infection. Mice were fully immunocompetent. Infection was induced by inoculating intraperitoneally in mice a bacterial suspension of S. aureus Smith ATCC 13709. The bacterial challenges (ca 5 log10 CFU/mouse) were given suspended in 0.5 mL of 20% hog mucin. […] Mortality was tracked out to 5 days post challenge. Animals that remained surviving at the end of the study were humanely euthanized.

P. aeruginosa ATCC 27853 [4] = assay type: cell-based, Pseudomonas aeruginosa; settings: ATCC 27853, 24 h
Procedure: as §1

S. aureus ATCC 25923 = assay type: cell-based, Staphylococcus aureus; settings: ATCC 25923
Text: as §2

[5] = Odilomycin A 7.5 mg/kg IV at 1 hr
[6] = Odilomycin A 15 mg/kg IV at 1 hr
[7] = HT29 colon adenocarcinoma cells
[8] = MRC-5 normal lung fibroblasts, MRC-5 cells
[9] = Odilomycin A 1.0 mg/kg IV at 1 hr
[10] = Odilomycin A 2.5 mg/kg IV at 1 hr
[11] = Odilomycin A 5.0 mg/kg IV at 1 hr

N=C(N)NCC/C=C(\NC(=O)C(CCC(O)CN)NC(=O)C(Cc1cnc[nH]1)NC(=O)C1CCCN1C(=O)C(CCCN)NC(=O)CNC(=O)C(NC(=O)C(NC(=O)C(N)CCCCN)C(O)CN)C(O)CN)C(=O)NC(CCC(O)CN)C(=O)NCCCCN (stereo not drawn) [Odilomycin A, Lys-(3-hydroxy-2,4-diaminobutanoic acid)-(3-hydroxy-2,4-diaminobutanoic acid)-Gly-Ornithine-Pro-His-(5-hydroxylysine)-(2,3-dehydroarginine)-(5-hydroxylysine)-(1,4-diaminobutane)] (H-K[ξDab(3-OH)][ξDab(3-OH)]G[Orn]PH[X1][ΔZArg][X1]-{NH(CH2)4NH2}; configuration not given here)
Animal deaths Day 0 (P. aeruginosa ATCC 27853 [1]; [5]): 0
Animal deaths Day 1 (P. aeruginosa ATCC 27853 [1]; [5]): 4
Animal deaths Day 2 (P. aeruginosa ATCC 27853 [1]; [5]): 1
Animal deaths Day 0 (P. aeruginosa ATCC 27853 [1]; [6]): 0
Animal deaths Day 2 (P. aeruginosa ATCC 27853 [1]; [6]): 4
Time to kill 100% of bacteria (P. aeruginosa ATCC 27853 [2]): ≤ 2 h
effect of serum proteins on antibacterial activity (S. aureus ATCC 13709; 50% and 95% (v/v) human serum, S. aureus ATCC 13709): weakly affected
MBC S. aureus ATCC 13709 (S. aureus ATCC 13709; Serum 0 % (v/v)): 0.78
MBC S. aureus ATCC 13709 (S. aureus ATCC 13709; human serum 50 % (v/v)): 1.56
MBC S. aureus ATCC 13709 (S. aureus ATCC 13709; human serum 95 % (v/v)): 1.56
CC50 at 72 h (Cytotoxicity test (MTS); [7]): > 100 µg/mL
viability at 72 h (Cytotoxicity test (MTS); [7]): 100%
CC50 at 72 h (Cytotoxicity test (MTS); [8]): > 100 µg/mL
viability at 72 h (Cytotoxicity test (MTS); [8]): 100%
MIC antibiotic alone (K. pneumoniae ATCC 43816): 25 µg/mL (≈ 19.3 µM)
Survival of all treated mice ([3]; Odilomycin A 2.5 mg/kg IV): survived up to 5 days after infection
Survival of all treated mice ([3]; Odilomycin A 5.0 mg/kg IV): survived up to 5 days after infection
Animal deaths Day 0 [3, 9]: 0
Animal deaths Day 1 [3, 9]: 0
Animal deaths Day 3 [3, 9]: 0
Animal deaths Day 4 [3, 9]: 0
Animal deaths Day 5 [3, 9]: 0
Animal deaths Day 0 [3, 10]: 0
Animal deaths Day 1 [3, 10]: 0
Animal deaths Day 2 [3, 10]: 0
Animal deaths Day 3 [3, 10]: 0
Animal deaths Day 4 [3, 10]: 0
Animal deaths Day 5 [3, 10]: 0
Animal deaths Day 0 [3, 11]: 0
Animal deaths Day 1 [3, 11]: 0
Animal deaths Day 2 [3, 11]: 0
Animal deaths Day 3 [3, 11]: 0
Animal deaths Day 4 [3, 11]: 0
Animal deaths Day 5 [3, 11]: 0
MBC (P. aeruginosa ATCC 27853 [4]): 6.25 µg/mL (≈ 4.82 µM)
MIC antibiotic alone (S. aureus ATCC 25923): 0.39 µg/mL (≈ 0.301 µM)
